Assay results published in patent US7923450B2, “Modulators for amyloid beta” (Hoffmann-La Roche Inc., priority 2008, dated 2011).
Structures can show the parent of a compound that is named as a salt.

Legend:
[1] = system: γ-secretase; assay: Cellular γ-secretase assay (Aβ42 secretion); assay type: cell-based; details: inhibition of Aβ42 secretion; human neuroglioma H4 cells overexpressing human APP; 22 hrs incubation; read-out: EC50 in vitro
Procedure: Cellular γ-Secretase Assay
Human neuroglioma H4 cells overexpressing human APP were plated at 30,000 cells/well/200 μl in 96-well plates in IMDM media containing 10% FCS, 0.2 mg/l Hygromycin B and incubated for 2 h at 37° C., 5% CO2 prior to adding test compounds.
Compounds for testing were dissolved in 100% Me2SO yielding in a 10 mM stock solution. Typically 12 μl of these solutions were further diluted in 1000 μl of IMDM media (w/o FCS,). Sub sequential 1:1 dilutions gave a ten point dose response curve. 100 μl of each dilution was added to the cells in 96-well plates. Appropriate controls using vehicle only and reference compound were applied to this assay. The final concentration of Me2SO was 0.4%.
After incubation for 22 hrs at 37° C., 5% CO2, 50 μl supernatant was transferred into round-bottom 96-well polypropylene plates for detection of Aβ42. 50 μl assay buffer (50 mM Tris/Cl, pH 7.4, 60 mM NaCl, 0.5% BSA, 1% TWEEN 20) was added to the wells followed by the addition of 100 μl of detection antibody (ruthenylated Aβ42-specific antibody BAP15 0.0625 μg/mL in assay buffer). 50 μl of a premix of capture antibody (biotinylated 6E10 antibody, 1 μg/mL) and Steptavidin-coated magnetic beads (Dynal M-280, 0.125 mg/mL) were preincubated for 1 hr at room temperature before adding the assay plates. Assay plates were incubated on a shaker for 3 hrs at room temperature and finally read in the Bioveris M8 Analyser according to the manufacturer's instructions (Bioveris).
EC50 values for inhibition of Aβ42 secretion were calculated by nonlinear regression fit analysis using XLfit 4.0 software (IDBS).

Which melting point does the source give for COc1cc(Nc2ncc3c(n2)C(c2ccc(Cl)cc2Cl)CCC3)ccc1-n1cnc(C)c1 (stereo not drawn) [Example 48, [8-(2,4-Dichloro-phenyl)-5,6,7,8-tetrahydro-quinazolin-2-yl]-[3-methoxy-4-(4-methyl-imidazol-1-yl)-phenyl]-amine] here?
Its melting point is 256 to 258 °C.

With COc1cc(Nc2ncc3c(n2)C(CC#N)(c2ccc(Cl)cc2)CCC3)ccc1-n1cnc(C)c1 (stereo not drawn) [Example 52, {8-(4-Chloro-phenyl)-2-[3-methoxy-4-(4-methyl-imidazol-1-yl)-phenylamino]-5,6,7,8-tetrahydro-quinazolin-8-yl}-acetonitrile] as the molecule, how does the melting point read?
The melting point was 156 to 158 °C.

With COC(=O)C1CC2(Cc3cnc(Nc4ccc(-n5cnc(C)c5)c(OC)c4)nc31)OCCO2 (stereo not drawn) [Example 55, Methyl 6,6-ethylendioxy-2-[3-methoxy-4-(4-methyl-imidazol-1-yl)-phenylamino]-5,6,7,8-tetrahydro-quinazoline-8-carboxylate] as the molecule, how does the melting point read?
The melting point was 180 to 182 °C.

With COc1cc(Nc2ncc3c(n2)C(C(=O)N(C)C)CCC3)ccc1-n1cnc(C)c1 (stereo not drawn) [Example 86, 2-[3-Methoxy-4-(4-methyl-imidazol-1-yl)-phenylamino]-5,6,7,8-tetrahydro-quinazoline-8-carboxylic acid dimethylamide] as the molecule, how does the melting point read?
The melting point was 150 to 152 °C.

For Cc1cn(-c2ccc(Nc3nc4c(s3)CCCC4(C)c3ccccc3)cc2F)cn1 (stereo not drawn) [Example 31, [3-Fluoro-4-(4-methyl-imidazol-1-yl)-phenyl]-(4-methyl-4-phenyl-4,5,6,7-tetrahydro-benzothiazol-2-yl)-amine], which melting point is on record?
Its melting point is 160 to 164 °C.

Which melting point does the source give for COc1cc(Nc2nc3c(s2)CCCC3c2ccccc2)ccc1-c1nc(C)no1 (stereo not drawn) [Example 89, [3-Methoxy-4-(3-methyl-[1,2,4]oxadiazol-5-yl)-phenyl]-(4-phenyl-4,5,6,7-tetrahydro-benzothiazol-2-yl)-amine] here?
Its melting point is 228 to 231 °C.

For Cc1cn(-c2ccc(Nc3ncc4c(n3)C(c3cccc(C(F)(F)F)c3)CCC4)cc2F)cn1 (stereo not drawn) [Example 57, [3-Fluoro-4-(4-methyl-imidazol-1-yl)-phenyl]-[8-(3-trifluoromethyl-phenyl)-5,6,7,8-tetrahydro-quinazolin-2-yl]-amine], which melting point is on record?
The melting point was 207 to 209 °C.

With Cc1cn(-c2ccc(Nc3ncc4c(n3)C(c3cc(C(F)(F)F)cc(C(F)(F)F)c3)CCC4)cc2F)cn1 (stereo not drawn) [Example 61, [8-(3,5-Bis-trifluoromethyl-phenyl)-5,6,7,8-tetrahydro-quinazolin-2-yl]-[3-fluoro-4-(4-methyl-imidazol-1-yl)-phenyl]-amine] as the molecule, how does the melting point read?
Its melting point is 200 to 202 °C.

With COc1cc(Nc2ncc3c(n2)C(C)(c2ccccc2)CCC3)ccc1-n1cnc(C)c1 (stereo not drawn) [Example 45, [3-Methoxy-4-(4-methyl-imidazol-1-yl)-phenyl]-(8-methyl-8-phenyl-5,6,7,8-tetrahydro-quinazolin-2-yl)-amine] as the molecule, how does the melting point read?
The melting point was 207 to 209 °C.

For COc1cc(Nc2ncc3c(n2)C(c2nc(C)no2)CCC3)ccc1-n1cnc(C)c1 (stereo not drawn) [Example 64, [3-Methoxy-4-(4-methyl-imidazol-1-yl)-phenyl]-[8-(3-methyl-[1,2,4]oxadiazol-5-yl)-5,6,7,8-tetrahydro-quinazolin-2-yl]-amine], which melting point is on record?
Its melting point is 212 to 214 °C.

With CCCC1(c2cccc(OC)c2)CCCc2cnc(Nc3ccc(-n4cnc(C)c4)c(OC)c3)nc21 (stereo not drawn) [Example 46, [3-Methoxy-4-(4-methyl-imidazol-1-yl)-phenyl]-[8-(3-methoxy-phenyl)-8-propyl-5,6,7,8-tetrahydro-quinazolin-2-yl]-amine] as the molecule, how does the melting point read?
Its melting point is 166 to 168 °C.

With COc1cc(Nc2ncc3c(n2)C(c2ccc(F)cc2)CCC3)ccc1-n1cnc(C)c1 (stereo not drawn) [Example 51, [8-(4-Fluoro-phenyl)-5,6,7,8-tetrahydro-quinazolin-2-yl]-[3-methoxy-4-(4-methyl-imidazol-1-yl)-phenyl]-amine] as the molecule, how does the melting point read?
Its melting point is 191 to 193 °C.

With CCOC(=O)C1CCCc2cnc(Nc3ccc(-n4cnc(C)c4)c(F)c3)nc21 (stereo not drawn) [Example 59, Ethyl 2-[3-fluoro-4-(4-methyl-imidazol-1-yl)-phenylamino]-5,6,7,8-tetrahydro-quinazoline-8-carboxylate] as the molecule, how does the melting point read?
Its melting point is 142 to 145 °C.

Which melting point does the source give for CCOC(=O)C1CCc2cnc(Nc3ccc(-n4cnc(C)c4)c(OC)c3)nc21 (stereo not drawn) [Example 63, Ethyl 2-[3-methoxy-4-(4-methyl-imidazol-1-yl)-phenylamino]-6,7-dihydro-5H-cyclopentapyrimidine-7-carboxylate] here?
Its melting point is 150 to 153 °C.

With COc1cc(Nc2ncc3c(n2)C(c2cccc(C(F)(F)F)c2)CCC3)ccc1-n1cnc(C)c1 (stereo not drawn) [Example 47, [3-Methoxy-4-(4-methyl-imidazol-1-yl)-phenyl]-[8-(3-trifluoromethyl-phenyl)-5,6,7,8-tetrahydro-quinazolin-2-yl]-amine] as the molecule, how does the melting point read?
The melting point was 213 to 215 °C.

Which melting point does the source give for COc1cc(Nc2nc(O)c3c(n2)C(c2ccccc2)CN(C)C3)ccc1-n1cnc(C)c1 (stereo not drawn) [Example 53, 2-[3-Methoxy-4-(4-methyl-imidazol-1-yl)-phenylamino]-6-methyl-8-phenyl-5,6,7,8-tetrahydro-pyrido[4,3-d]pyrimidin-4-ol] here?
Its melting point is 152 to 155 °C.

Which melting point does the source give for COc1cc(Nc2ncc3c(n2)C(N2CCOCC2)CCC3)ccc1-n1cnc(C)c1 (stereo not drawn) [Example 81, [3-Methoxy-4-(4-methyl-imidazol-1-yl)-phenyl]-(8-morpholin-4-yl-5,6,7,8-tetrahydro-quinazolin-2-yl)-amine] here?
Its melting point is 214 to 216 °C.

For COc1cc(Nc2ncc3c(n2)C(c2ccc(Cl)c(Cl)c2)CCC3)ccc1-n1cnc(C)c1 (stereo not drawn) [Example 49, [8-(3,4-Dichloro-phenyl)-5,6,7,8-tetrahydro-quinazolin-2-yl]-[3-methoxy-4-(4-methyl-imidazol-1-yl)-phenyl]-amine], which melting point is on record?
Its melting point is 167 to 169 °C.

Which EC50 [1] does the source give for COc1cc(Nc2ncc3c(n2)C(c2ccccc2)CNC3)ccc1-n1cnc(C)c1 (stereo not drawn) [Example 41, [3-Methoxy-4-(4-methyl-imidazol-1-yl)-phenyl]-(8-phenyl-5,6,7,8-tetrahydro-pyrido[4,3-d]pyrimidin-2-yl)-amine hydrochloride] here?
Its EC50 is 340 nM.

Which melting point does the source give for CCOC(=O)C1CCCc2cnc(Nc3ccc(-n4cnc(C)c4)c(OC)c3)nc21 (stereo not drawn) [Example 54, Ethyl 2-[3-methoxy-4-(4-methyl-imidazol-1-yl)-phenylamino]-5,6,7,8-tetrahydro-quinazoline-8-carboxylate] here?
The melting point was 162 to 164 °C.

Which EC50 [1] does the source give for c1ccc(C2CCCc3sc(Nc4ccc(-c5ccncc5)cc4)nc32)cc1 (stereo not drawn) [Example 94, (4-Phenyl-4,5,6,7-tetrahydro-benzothiazol-2-yl)-(4-pyridin-4-yl-phenyl)-amine] here?
Its EC50 is 320 nM.

Which EC50 [1] does the source give for COc1cc(Nc2nc3c(s2)CCCC3c2ccccc2)ccc1-c1sc(C)nc1C (stereo not drawn) [Example 93, [4-(2,4-Dimethyl-thiazol-5-yl)-3-methoxy-phenyl]-(4-phenyl-4,5,6,7-tetrahydro-benzothiazol-2-yl)-amine] here?
Its EC50 is 212 nM.

Which EC50 [1] does the source give for COc1cc(Nc2ncc3c(n2)C(c2ccccc2)CN(C(C)=O)C3)ccc1-n1cnc(C)c1 (stereo not drawn) [Example 42, 1-{2-[3-Methoxy-4-(4-methyl-imidazol-1-yl)-phenylamino]-8-phenyl-7,8-dihydro-5H-pyrido[4,3-d]pyrimidin-6-yl}-ethanone] here?
The EC50 was 500 nM.

With COc1cc(Nc2nc3c(s2)CN(Cc2ccccc2)CC3c2ccc(Cl)c(F)c2)ccc1-n1cnc(C)c1 (stereo not drawn) [Example 24, [5-Benzyl-7-(4-chloro-3-fluorophenyl)-4,5,6,7-tetrahydro-thiazolo[5,4-c]pyridin-2-yl]-[3-methoxy-4-(4-methyl-imidazol-1-yl)-phenyl]-amine] as the molecule, how does the EC50 [1] read?
The EC50 was 70 nM.
